Measurements as given in article PMC6816037 (Computational and Structural Biotechnology Journal, 2019).

Molecular target: XIAP-BIR3 (Homo sapiens, UniProt P98170)
Assay: surface plasmon resonance
Type: binding

XIAP-BIR3, sequence (P98170 241-356 limits assumed): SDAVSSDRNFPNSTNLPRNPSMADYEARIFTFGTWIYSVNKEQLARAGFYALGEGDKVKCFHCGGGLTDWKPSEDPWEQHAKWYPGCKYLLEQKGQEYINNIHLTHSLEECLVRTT

Kd: 13.3 µM
Structure (SMILES): C[C@@H]1O[C@@H](O[C@H]2[C@H](Oc3cc(O)c4c(c3)O[C@H](c3ccc(O)c(O)c3)CC4=O)O[C@H](CO)[C@@H](O)[C@@H]2O)[C@H](O)[C@H](O)[C@H]1O [compound 10, neoeriocitrin]
